Results published in patent US9914731B2, “Pyrazolo[1,5-a]pyridine derivatives and methods of their use” (Ignyta, Inc., priority 2013, dated 2018).

biological target: recombinant human baculovirus-expressed cMET (Homo sapiens (Human), UniProt P08581); assay: c-MET kinase assay (HTRF KinEASE); format: biochemical; conditions: not given

SMILES | IC50 [µM]
O=C(Nc1ccc(Oc2cccn3nccc23)c(F)c1)C1CCN(c2ccc(F)cc2)C1=O (stereo not shown) [Example 10, 1-(4-Fluoro-phenyl)-2-oxo-pyrrolidine-3-carboxylic acid [3-fluoro-4-(pyrazolo[1,5-a]pyridin-4-yloxy)-phenyl]-amide] | 0.01 to 0.1

same assay, conditions: average of two or more determinations; read-out: c-MET IC50

SMILES | IC50 [µM]
Cn1ccnc1-c1cc(Oc2ccc(NC(=O)c3cccn(-c4ccc(F)cc4)c3=O)cc2F)c2ccnn2c1 [Example 90, 1-(4-Fluoro-phenyl)-2-oxo-1,2-dihydro-pyridine-3-carboxylic acid{3-fluoro-4-[6-(1-methyl-1H-imidazol-2-yl)-pyrazolo[1,5-a]pyridin-4-yloxy]-phenyl}-amide] | < 0.01
CCn1cc(C(=O)Nc2ccc(Oc3cc(-c4cnco4)cn4nccc34)c(F)c2)c(=O)n(-c2ccc(F)cc2)c1=O [Example 52, 1-Ethyl-3-(4-fluoro-phenyl)-2,4-dioxo-1,2,3,4-tetrahydro-pyrimidine-5-carboxylic acid[3-fluoro-4-(6-oxazol-5-yl-pyrazolo[1,5-a]pyridin-4-yloxy)-phenyl]-amide] | < 0.01
CCn1cc(C(=O)Nc2ccc(Oc3cc(NS(C)(=O)=O)cn4nccc34)c(F)c2)c(=O)n(-c2ccc(F)cc2)c1=O [Example 140, 1-Ethyl-3-(4-fluoro-phenyl)-2,4-dioxo-1,2,3,4-tetrahydro-pyrimidine-5-carboxylic acid[3-fluoro-4-(6-methanesulfonylamino-pyrazolo[1,5-a]pyridin-4-yloxy)-phenyl]-amide] | 0.01 to 0.1
Cc1c(C(=O)Nc2ccc(Oc3cccn4nccc34)cc2)cnn1-c1ccc(F)cc1 [Example 18, 1-(4-Fluoro-phenyl)-5-methyl-1H-pyrazole-4-carboxylic acid [4-(pyrazolo[1,5-a]pyridin-4-yloxy)-phenyl]-amide] | 1 to 10
O=C(Nc1ccc(Oc2cccn3nccc23)c(F)c1)c1c[nH]c(=O)n(-c2ccc(F)cc2)c1=O [Example 11, 3-(4-Fluoro-phenyl)-2,4-dioxo-1,2,3,4-tetrahydro-pyrimidine-5-carboxylic acid [3-fluoro-4-(pyrazolo[1,5-a]pyridin-4-yloxy)-phenyl]-amide] | 0.01 to 0.1
CCn1cc(C(=O)Nc2ccc(Oc3cc(-c4cncn4C)cn4nccc34)c(F)c2)c(=O)n(-c2ccc(F)cc2)c1=O [Example 100, 1-Ethyl-3-(4-fluoro-phenyl)-2,4-dioxo-1,2,3,4-tetrahydro-pyrimidine-5-carboxylic acid{3-fluoro-4-[6-(3-methyl-3H-imidazol-4-yl)-pyrazolo[1,5-a]pyridin-4-yloxy]-phenyl}-amide] | < 0.01
CC(C)n1cc(C(=O)Nc2ccc(Oc3cc(-c4cn(C)cn4)cn4nccc34)c(OCc3ccccc3)c2)c(=O)n(-c2ccc(F)cc2)c1=O [Example 121, 3-(4-Fluoro-phenyl)-1-isopropyl-2,4-dioxo-1,2,3,4-tetrahydro-pyrimidine-5-carboxylic acid {3-benzyloxy-4-[6-(1-methyl-1H-imidazol-4-yl)-pyrazolo[1,5-a]pyridine-4-yloxy]-phenyl}-amide] | 0.01 to 0.1
CN1CCN(c2cc(Oc3ccc(NC(=O)c4cccn(-c5ccc(F)cc5)c4=O)cc3F)c3ccnn3c2)CC1 [Example 38, 1-(4-Fluoro-phenyl)-2-oxo-1,2-dihydro-pyridine-3-carboxylic acid {3-fluoro-4-[6-(4-methyl-piperazin-1-yl)-pyrazolo[1,5-a]pyridin-4-yloxy]-phenyl}-amide] | < 0.01
CCn1cc(C(=O)Nc2ccc(Oc3cc(-c4cn(C)cn4)cn4nccc34)nc2)c(=O)n(-c2ccc(F)cc2)c1=O [Example 115, 1-Ethyl-3-(4-fluoro-phenyl)-2,4-dioxo-1,2,3,4-tetrahydro-pyrimidine-5-carboxylic acid{6-[6-(1-methyl-1H-imidazol-4-yl)-pyrazolo[1,5-a]pyridin-4-yloxy]-pyridin-3-yl}-amide] | < 0.01
CC(C)n1cc(C(=O)Nc2ccc(Oc3cc(Nc4ncccn4)cn4nccc34)c(F)c2)c(=O)n(-c2ccc(F)cc2)c1=O [Example 85, 3-(4-Fluoro-phenyl)-1-isopropyl-2,4-dioxo-1,2,3,4-tetrahydro-pyrimidine-5-carboxylic acid{3-fluoro-4-[6-(pyrimidin-2-ylamino)-pyrazolo[1,5-a]pyridin-4-yloxy]-phenyl}-amide] | < 0.01
CCn1cc(C(=O)Nc2ccc(Oc3cc(N4CCOCC4)cn4nccc34)c(F)c2)c(=O)n(-c2ccc(F)cc2)c1=O [Example 61, 1-Ethyl-3-(4-fluoro-phenyl)-2,4-dioxo-1,2,3,4-tetrahydro-pyrimidine-5-carboxylic acid[3-fluoro-4-(6-morpholin-4-yl-pyrazolo[1,5-a]pyridin-4-yloxy)-phenyl]-amide] | < 0.01
CCn1cc(C(=O)Nc2ccc(Oc3cc(-c4cn(C)cn4)cn4nccc34)c(C)c2)c(=O)n(-c2ccc(F)cc2)c1=O [Example 109, 1-Ethyl-3-(4-fluoro-phenyl)-2,4-dioxo-1,2,3,4-tetrahydro-pyrimidine-5-carboxylic acid{3-methyl-4-[6-(1-methyl-1H-imidazol-4-yl)-pyrazolo[1,5-a]pyridin-4-yloxy]-phenyl}-amide] | < 0.01
CC(C)n1cc(C(=O)Nc2ccc(Oc3cc(N4CCS(=O)(=O)CC4)cn4nccc34)c(F)c2)c(=O)n(-c2ccc(F)cc2)c1=O [Example 74, 3-(4-Fluoro-phenyl)-1-isopropyl-2,4-dioxo-1,2,3,4-tetrahydro-pyrimidine-5-carboxylic acid{4-[6-(1,1-dioxo-thiomorpholin-4-yl)-pyrazolo[1,5-a]pyridin-4-yloxy]-3-fluoro-phenyl}-amide] | < 0.01
O=C(Cc1ccc(F)cc1)NC(=S)Nc1ccc(Oc2cccn3nccc23)c(F)c1 [Example 6, 1-[2-(4-Fluoro-phenyl)-acetyl]-3-[3-fluoro-4-(pyrazolo[1,5-a]pyridin-4-yloxy)-phenyl]-thiourea] | 0.01 to 0.1
CC(C)n1cc(C(=O)Nc2ccc(Oc3cc(NC(=O)N4CCN(C)CC4)cn4nccc34)c(F)c2)c(=O)n(-c2ccc(F)cc2)c1=O [Example 150, 3-(4-Fluoro-phenyl)-1-isopropyl-2,4-dioxo-1,2,3,4-tetrahydro-pyrimidine-5-carboxylic acid(3-fluoro-4-{6-[(4-methyl-piperazine-1-carbonyl)-amino]-pyrazolo[1,5-a]pyridin-4-yloxy}-phenyl)-amide] | 0.01 to 0.1
CC(C)n1cc(C(=O)Nc2ccc(Oc3cc(-c4cn(C)cn4)cn4nccc34)nc2)c(=O)n(-c2ccc(F)cc2)c1=O [Example 116, 3-(4-Fluoro-phenyl)-1-isopropyl-2,4-dioxo-1,2,3,4-tetrahydro-pyrimidine-5-carboxylic acid{6-[6-(1-methyl-1H-imidazol-4-yl)-pyrazolo[1,5-a]pyridin-4-yloxy]-pyridin-3-yl}-amide] | < 0.01
O=C(Nc1ccc(Oc2cccn3nccc23)c(F)c1)c1cccn(Cc2ccc(F)cc2)c1=O [Example 8, 1-(4-Fluoro-benzyl)-2-oxo-1,2-dihydro-pyridine-3-carboxylic acid [3-fluoro-4-(pyrazolo[1,5-a]pyridin-4-yloxy)-phenyl]-amide] | 0.101 to 1
CC(C)n1cc(C(=O)Nc2ccc(Oc3cc(-c4cn(C)cn4)cn4nccc34)c(O)c2)c(=O)n(-c2ccc(F)cc2)c1=O [Example 122, 3-(4-Fluoro-phenyl)-1-isopropyl-2,4-dioxo-1,2,3,4-tetrahydro-pyrimidine-5-carboxylic acid{3-hydroxy-4-[6-(1-methyl-1H-imidazol-4-yl)-pyrazolo[1,5-a]pyridin-4-yloxy]-phenyl}-amide] | 0.01 to 0.1
CN1CCN(c2ccc(-c3cc(Oc4ccc(NC(=O)c5cccn(-c6ccc(F)cc6)c5=O)cc4F)c4ccnn4c3)cn2)CC1 [Example 37, 1-(4-Fluoro-phenyl)-2-oxo-1,2-dihydro-pyridine-3-carboxylic acid (3-fluoro-4-{6-[6-(4-methyl-piperazin-1-yl)-pyridin-3-yl]-pyrazolo[1,5-a]pyridin-4-yloxy}-phenyl)-amide] | < 0.01
Cc1ccc(C(=O)Nc2ccc(Oc3cc(C4CCS(=O)(=O)CC4)cn4nccc34)c(F)c2)c(=O)n1-c1ccc(F)cc1 [Example 50, 1-(4-Fluoro-phenyl)-6-methyl-2-oxo-1,2-dihydro-pyridine-3-carboxylic acid {4-[6-(1,1-dioxo-hexahydro-thiopyran-4-yl)-pyrazolo[1,5-a]pyridin-4-yloxy]-3-fluoro-phenyl}-amide] | < 0.01
CC(C)n1cc(C(=O)Nc2ccc(Oc3cc(N4CCCC4=O)cn4nccc34)c(F)c2)c(=O)n(-c2ccc(F)cc2)c1=O [Example 78, 3-(4-Fluoro-phenyl)-1-isopropyl-2,4-dioxo-1,2,3,4-tetrahydro-pyrimidine-5-carboxylic acid {3-fluoro-4-[6-(2-oxo-pyrrolidin-1-yl)-pyrazolo[1,5-a]pyridin-4-yloxy]-phenyl}-amide] | < 0.01
CCn1cc(C(=O)Nc2ccc(Oc3cc(N4CCS(=O)(=O)CC4)cn4nccc34)c(F)c2)c(=O)n(-c2ccc(F)cc2)c1=O [Example 73, 1-Ethyl-3-(4-fluoro-phenyl)-2,4-dioxo-1,2,3,4-tetrahydro-pyrimidine-5-carboxylic acid{4-[6-(1,1-dioxo-thiomorpholin-4-yl)-pyrazolo[1,5-a]pyridin-4-yloxy]-3-fluoro-phenyl}-amide] | < 0.01
CC(C)n1cc(C(=O)Nc2ccc(Oc3cc(-c4cn(C)cn4)cn4nccc34)c(C(F)(F)F)c2)c(=O)n(-c2ccc(F)cc2)c1=O [Example 126, 3-(4-Fluoro-phenyl)-1-isopropyl-2,4-dioxo-1,2,3,4-tetrahydro-pyrimidine-5-carboxylic acid{4-[6-(1-methyl-1H-imidazol-4-yl)-pyrazolo[1,5-a]pyridin-4-yloxy]-3-trifluoromethyl-phenyl}-amide] | 0.01 to 0.1

same assay, conditions: read-out: c-MET IC50

SMILES | IC50 [µM]
CCOc1ccn(-c2ccc(F)cc2)c(=O)c1C(=O)Nc1ccc(Oc2cc(N3CCOCC3)cn3nccc23)c(F)c1 [Example 66, 4-Ethoxy-1-(4-fluoro-phenyl)-2-oxo-1,2-dihydro-pyridine-3-carboxylic acid [3-fluoro-4-(6-morpholin-4-yl-pyrazolo[1,5-a]pyridin-4-yloxy)-phenyl]-amide] | < 0.01
